Five molecules from ChEMBL document CHEMBL4261619, “Sentulic acid isolated from Sandoricum koetjape Merr attenuates lipopolysaccharide and interferon gamma co-stimulated nitric oxide production in murine macrophage RAW264 cells” (Bioorg Med Chem Lett, 2018) can be followed below.

Calls of active or inactive are those of the source. The rule behind the calls is not given here.

Test [1] concerns the target T1, Toll-like receptor 4 (Mus musculus) (UniProt Q9QUK6).
T1 sequence (whole entry): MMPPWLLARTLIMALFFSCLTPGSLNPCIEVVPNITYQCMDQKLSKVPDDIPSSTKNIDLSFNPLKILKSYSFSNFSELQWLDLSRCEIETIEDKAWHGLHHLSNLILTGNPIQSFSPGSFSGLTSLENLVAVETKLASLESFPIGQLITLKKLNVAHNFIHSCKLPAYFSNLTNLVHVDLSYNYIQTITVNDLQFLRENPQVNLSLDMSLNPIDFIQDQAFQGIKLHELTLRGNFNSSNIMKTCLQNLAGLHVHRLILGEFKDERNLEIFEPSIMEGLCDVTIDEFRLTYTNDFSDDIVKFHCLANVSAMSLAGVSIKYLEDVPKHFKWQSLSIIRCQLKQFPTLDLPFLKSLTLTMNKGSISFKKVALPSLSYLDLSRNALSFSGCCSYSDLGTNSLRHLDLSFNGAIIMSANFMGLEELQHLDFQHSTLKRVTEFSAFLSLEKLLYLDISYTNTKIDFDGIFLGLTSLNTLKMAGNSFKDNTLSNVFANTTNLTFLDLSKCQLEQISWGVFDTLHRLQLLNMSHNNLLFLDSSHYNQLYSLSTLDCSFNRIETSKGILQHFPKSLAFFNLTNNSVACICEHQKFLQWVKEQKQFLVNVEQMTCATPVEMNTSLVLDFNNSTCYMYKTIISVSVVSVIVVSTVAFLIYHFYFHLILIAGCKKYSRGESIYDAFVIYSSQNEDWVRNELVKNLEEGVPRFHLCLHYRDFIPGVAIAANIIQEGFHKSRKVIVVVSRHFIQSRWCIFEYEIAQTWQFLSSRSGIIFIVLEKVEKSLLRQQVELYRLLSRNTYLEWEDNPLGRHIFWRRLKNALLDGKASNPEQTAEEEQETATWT
In words: Inhibition of LPS binding to TLR4 in IFNgamma-stimulated mouse RAW264.7 cells assessed as reduction in nitric oxide production pretreated for 2 hrs followed by LPS/IFNgamma stimulation and measured after 24 hrs. The test is classed as cell-based.

The target in test [2] is T1, Toll-like receptor 4 (Mus musculus). In words: Inhibition of LPS binding to TLR4 in IFNgamma-stimulated mouse RAW264.7 cells assessed as reduction in nitric oxide production at 25 to 100 uM pretreated for 2 hrs followed by LPS/IFNgamma stimulation and measured after 24 hrs. The test is classed as cell-based.

As for `C[C@H]1[C@H](C)CC[C@]2(C(=O)O)CC[C@]3(C)C(=CC[C@@H]4[C@@]5(C)CC[C@H](O)C(C)(C)[C@@H]5CC[C@]43C)[C@H]12`, the inhibition entry in test [1] was “Dose-dependent effect”.
`C=C(C)[C@@H]1CC[C@]2(C(=O)O)CC[C@]3(C)[C@H](CC[C@@H]4[C@@]5(C)CC[C@H](O)C(C)(C)[C@@H]5CC[C@]43C)[C@@H]12`: the inhibition result in test [2] was “inactive”.
The same measure, in the same setting: next, `CC1(C)CC[C@]2(C(=O)O)CC[C@]3(C)C(=CC[C@@H]4[C@@]5(C)CC[C@H](O)C(C)(C)[C@@H]5CC[C@]43C)[C@@H]2C1`: “inactive”; `CC1(C)CC[C@]2(C)CC[C@]3(C(=O)O)C(=CC[C@@H]4[C@@]5(C)CCC(=O)C(C)(C)[C@@H]5CC[C@]43C)[C@@H]2C1`: “inactive”.
Turning to `CC1(C)[C@@H](O)CC[C@]2(C)[C@H]3C(=O)C=C4[C@@H]5C[C@@](C)(C(=O)O)CC[C@]5(C)CC[C@@]4(C)[C@]3(C)CC[C@@H]12`, the inhibition entry in test [2] was “inactive”.
